Counter-ions that a name gives are not always drawn. Marks after values point to notes of the source that are not given here.
Assays:
[1] = Acute toxicity test, single gavage in rats; format: in vivo; conditions: SD rat, gavage once, observed 14 days
Procedure: Test content: single administration dosage: 2000 mg/kg, 600 mg/kg; administration by gavage: once; volume: 10 ml/kg; observing for 14 days for the rat's behavior and weight each day.
Experimental grouping: black group, Group of 600 mg/kg, Group of 2000 mg/kg; 4 rats each group; half male and half female.

[2] = tested on: gastric acid secretion induced by histamine; experiment: Gastric acid secretion induced by histamine in pylorus-ligated rats; format: in vivo; conditions: SD rat; for Total acid content: 2 mg/kg by gavage 1 h before histamine, total acid of 3 h; for Acid inhibiting rate %: 2 mg/kg by gavage, compared with model control
Text: Test Case 3: Studies on the Effect of EXP 1, TAK-438 and EXP 14 on Gastric Acid Secretion Induced by Histamine Experimental Materials 1) Animals
SD rat, class SPF, male, 180-220 g; provided by Zhejiang Experimental Animal Center; production permit no.: SCXK (Z) 2014-0001.
Compound EXP 1, dissolved with a small amount of acetic acid (about 1.10N EXP 1), 0.9% sodium chloride solution to a clear liquid with needed concentration before use.
>Compound TAK-438, dissolved with 0.9% sodium chloride solution to a clear liquid with needed concentration before use.
Compound EXP 14, dissolved with a small amount of acetic acid (about 1.10N EXP 14), 0.9% sodium chloride solution to a clear liquid with needed concentration before use.
Fetching 60 SD rats of class SPF with a weight of 180-220 g; dividing the rats into 5 groups as per weights randomly, including Group EXP 1 (2 mg/kg), Group TAK-438 (2 mg/kg, as per free alkali), Group EXP 14 (2 mg/kg), Group negative control (normal saline of equal volume) and Group model control (normal saline of equal volume); 12 rats per group. Absolute diet for 24 h, water is allowed. After 24 h, administrating drugs to the tested compound groups A, B and C by gavage with a volume of 1 ml/100 g; each group is administered once; the negative control and model negative control groups are administrated by gavage with normal saline of equal volume. Narcotizing the rat with 300 mg/kg of chloral hydrate (1 ml/100 g) and fixing it onto the rat board; cutting to open the abdominal wall along the medioventral line from the mucronate cartilage with an incision of 2-3 cm; slightly pushing the left costal margin upward to expose the stomach in the incision. Ligaturing the pylorus thereunder (leave alone the adjacent blood vessels) and then suturing the abdominal incision. Giving histamine dihydrochloride (30 mg/10 m/kg) hypodermically to the rat 1 h after the tested compound or normal saline are administrated. Choking the rat to death with excessive CO2 3 h after the histamine is given; taking out the stomach and collecting the gastric contents for centrifugation at 3000 rpm/min; adjusting the PH value of the acid fluid to 7.0 with 0.1 mol/L of NaOH titration and then calculating the total acid content of the 3 h. Refer to Table 3 for results.

H^+/K^+-ATPase = target: T1, H^+/K^+-ATPase (Oryctolagus cuniculus, UniProt P27112); experiment: Inhibition of H+/K+-ATPase enzymatic activity (rabbit gastric mucosal microsomes, malachite green); format: biochemical; conditions: pH 6.5, 37° C. 30 min, read-out: The median inhibitory concentration (IC50) of the compound to the activity of H^+/K^+-ATPase
T1 construct: collecting the middle layer (H^+/K^+-ATPase enriched gastric membranes) into a clean centrifugal tube; from tissue; host or cells: rabbit stomach (gastric mucosal microsomes, sucrose/Ficoll gradient centrifugation)
T1 sequence (P27112 whole entry): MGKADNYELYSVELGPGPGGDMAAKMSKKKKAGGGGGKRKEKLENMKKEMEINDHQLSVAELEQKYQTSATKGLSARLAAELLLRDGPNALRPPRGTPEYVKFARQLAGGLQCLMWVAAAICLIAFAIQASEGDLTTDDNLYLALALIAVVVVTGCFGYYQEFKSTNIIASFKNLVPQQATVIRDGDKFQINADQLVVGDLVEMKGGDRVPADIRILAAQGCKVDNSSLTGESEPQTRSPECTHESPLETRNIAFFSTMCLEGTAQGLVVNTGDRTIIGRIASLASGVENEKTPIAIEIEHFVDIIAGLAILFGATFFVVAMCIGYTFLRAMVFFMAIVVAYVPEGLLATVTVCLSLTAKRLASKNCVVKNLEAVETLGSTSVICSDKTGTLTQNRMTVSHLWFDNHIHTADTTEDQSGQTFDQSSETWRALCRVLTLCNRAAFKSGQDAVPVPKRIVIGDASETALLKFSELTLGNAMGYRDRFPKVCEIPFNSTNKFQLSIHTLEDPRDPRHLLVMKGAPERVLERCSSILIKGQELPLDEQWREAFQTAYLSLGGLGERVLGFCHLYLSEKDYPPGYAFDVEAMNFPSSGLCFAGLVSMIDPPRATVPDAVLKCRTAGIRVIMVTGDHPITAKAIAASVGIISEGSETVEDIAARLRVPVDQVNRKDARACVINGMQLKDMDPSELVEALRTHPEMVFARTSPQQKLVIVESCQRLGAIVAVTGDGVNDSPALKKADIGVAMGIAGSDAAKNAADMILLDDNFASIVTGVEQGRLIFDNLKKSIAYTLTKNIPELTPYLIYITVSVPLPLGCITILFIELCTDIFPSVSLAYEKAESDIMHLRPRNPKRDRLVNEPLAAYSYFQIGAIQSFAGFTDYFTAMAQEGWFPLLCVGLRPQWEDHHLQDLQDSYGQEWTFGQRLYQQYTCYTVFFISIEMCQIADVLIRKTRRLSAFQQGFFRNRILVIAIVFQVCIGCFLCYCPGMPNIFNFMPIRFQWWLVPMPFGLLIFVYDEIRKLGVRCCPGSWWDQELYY
T1 sequence (P18597 whole entry partner): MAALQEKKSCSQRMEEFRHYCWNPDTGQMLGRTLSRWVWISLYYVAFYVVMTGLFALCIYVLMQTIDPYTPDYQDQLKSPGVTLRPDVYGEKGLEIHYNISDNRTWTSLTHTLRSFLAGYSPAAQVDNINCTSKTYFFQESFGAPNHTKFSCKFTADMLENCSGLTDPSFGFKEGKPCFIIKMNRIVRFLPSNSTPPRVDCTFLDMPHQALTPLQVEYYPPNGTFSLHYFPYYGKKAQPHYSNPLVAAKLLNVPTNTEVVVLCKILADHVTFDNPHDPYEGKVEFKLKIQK
Text: Biological Evaluation on H^+/K^+-ATPase
The following screening assays in vitro are used to evaluate the inhibiting effect of the compound of the Invention on the enzymatic activity of H^+/K^+-ATPase. Experimental materials and instruments are as follows:
1) Rabbit gastric mucosal microsomes (enriched H^+/K^+-ATPase; extracted by the Applicant)
2) Buffer solution: 50 mmol/L HEPEs-Tris, pH=6.5, 5 mmol/L magnesium chloride, 10 μmol/L valinomycin;
3) Buffer solution: 50 mmol/L HEPEs-Tris, pH=6.5, 5 mmol/L magnesium chloride, 10 μmol/L valinomycin, 5 mmol/L potassium chloride;
4) ATP: diluting ATP to 5 mM with buffer solution 1;
5) Malachite green solution: dissolving 0.12% of malachite green in 2.5 mol/L of sulfuric acid; mixing 7.5% (V/V) of ammonium molybdate and 11% of Tween 20(V/V) in a proportion of 100:25:2;
6) The method for extracting rabbit gastric mucosal microsomes (enriched H^+/K^+-ATPase) is sucrose gradient centrifugation, i.e., washing the rabbit stomach with tap water and 3M NaCl solution respectively and removing the surface moisture with filter paper; adding the pre-cooled buffer solution (4 ml/g tissue) for homogenation in a tissue homogenizer for 2-5 min; removing the large tissue particles in a way of centrifugation (600 g, 10 mm) if any after homogenation; transferring the supernatant to a clean centrifugal tube for centrifugation for 30 min at 2000 g; then transferring the supernatant to a clean centrifugal tube for further centrifugation for 90 min at 100000 g; collecting the sediment; suspending the sediment in the homogenate and blowing it to be uniform; measuring the protein concentration with Bradford method; adjusting the concentration to 10 mg/ml; adding 7.5% Ficoll demixing fluid in an equal proportion for centrifugation for 60 min at 100000 g; collecting the middle layer (H^+/K^+-ATPase enriched gastric membranes) into a clean centrifugal tube; diluting it with 4-5 times of homogenate for further centrifugation for 90 min at 100000 g; collecting the sediment; suspending the sediment in the homogenate for homogenation with a glass homogenizer; measuring the protein concentration with Bradford method and adjusting the concentration to 22.5 mg/ml; freezing it under −80° C. for standby. Experimental Process:
Adding 5 μL of gastric mucosal microsomes (H^+/K^+-ATPase) in 45 µL of buffer solution 2; adding 5 μL of the compound solution; adding 5 μL 5 mM of ATP to start the reaction for pre-reaction at 37° C. for 30 min; adding 15 μL of malachite green solution to terminate the reaction; balancing at ambient temperature for 20 min; reading the value of absorbed light at 620 nm.
Meanwhile, conducting another reaction with the same volume without potassium chloride for background, which will be subtracted when calculating the enzymatic activity.
The value of Compound IC50 is calculated through the inhibition ratios at different concentrations.

SMILES | Death after single oral dose ([1]; 600 mg/kg) | Impact on the rat's weight ([1]; 600 mg/kg) | Death after single oral dose ([1]; 2000 mg/kg) | Total acid content [2] | Acid inhibiting rate % [2] | IC50 (H^+/K^+-ATPase)
CNCc1cc(-c2ccccc2F)n(S(=O)(=O)c2cccc(OCCCOC)c2)c1 [EXP 1, 1-(5-(2-fluorobenzene)-1-((3-(3-methoxypropoxy)phenyl)sulfonyl)-1H-pyrrole-3-yl)-N-methyl methylamine] | no death | not obvious | no death | 0.49 ± 0.12** 10^−4 mol | 55.4% | < 100 nM
CNCc1cc(-c2ccccc2F)n(S(=O)(=O)c2cccnc2)c1 [TAK-438, 5-(2-fluorophenyl)-N-methyl-1-(3-pyridylsulfonyl)-1H-pyrrole-3-methamine fumarate] | – | inhibition of weight gain | all died | 0.52 ± 0.10** 10^−4 mol | 52.3% | < 100 nM

Source: patent publication US10913714B2, “Pyrrole sulfonyl derivative, preparation method and medical use thereof” (JIANGSU CAREPHAR PHARMACEUTICAL CO., LTD, priority 2015, dated 2021)
